Key:
[1] = Antiproliferative activity against human SW620 cells assessed as cell growth inhibition after 48 hrs by MTT assay; type: functional, cell-based; settings: SW-620, 48 h
HT-29 = experiment: Antiproliferative activity against human HT-29 cells assessed as cell growth inhibition after 48 hrs by MTT assay; type: functional, cell-based; settings: HT-29, 48 h
[2] = Antiproliferative activity against human MGC803 cells assessed as cell growth inhibition after 48 hrs by MTT assay; type: functional, cell-based; settings: MGC-803, 48 h
[3] = Antiproliferative activity against human […] cells assessed as cell growth inhibition after 48 hrs by MTT assay; type: functional, cell-based
Sonic hedgehog protein = Sonic hedgehog protein (Mus musculus, UniProt Q62226); experiment: Inhibition of hedgehog signalling in mouse NIH3T3-Gli-luc cells after 48 hrs by dual luciferase reporter assay; type: cell-based
Protein smoothened = Protein smoothened (Homo sapiens, UniProt Q99835); experiment: Displacement of boron-dipyrromethene-cyclopamine from human smoothened receptor expressed in HEK293 cells incubated for 4 hrs by hSMO-BC binding assay; type: cell-based
Protein smoothened, sequence (Q99835 whole entry): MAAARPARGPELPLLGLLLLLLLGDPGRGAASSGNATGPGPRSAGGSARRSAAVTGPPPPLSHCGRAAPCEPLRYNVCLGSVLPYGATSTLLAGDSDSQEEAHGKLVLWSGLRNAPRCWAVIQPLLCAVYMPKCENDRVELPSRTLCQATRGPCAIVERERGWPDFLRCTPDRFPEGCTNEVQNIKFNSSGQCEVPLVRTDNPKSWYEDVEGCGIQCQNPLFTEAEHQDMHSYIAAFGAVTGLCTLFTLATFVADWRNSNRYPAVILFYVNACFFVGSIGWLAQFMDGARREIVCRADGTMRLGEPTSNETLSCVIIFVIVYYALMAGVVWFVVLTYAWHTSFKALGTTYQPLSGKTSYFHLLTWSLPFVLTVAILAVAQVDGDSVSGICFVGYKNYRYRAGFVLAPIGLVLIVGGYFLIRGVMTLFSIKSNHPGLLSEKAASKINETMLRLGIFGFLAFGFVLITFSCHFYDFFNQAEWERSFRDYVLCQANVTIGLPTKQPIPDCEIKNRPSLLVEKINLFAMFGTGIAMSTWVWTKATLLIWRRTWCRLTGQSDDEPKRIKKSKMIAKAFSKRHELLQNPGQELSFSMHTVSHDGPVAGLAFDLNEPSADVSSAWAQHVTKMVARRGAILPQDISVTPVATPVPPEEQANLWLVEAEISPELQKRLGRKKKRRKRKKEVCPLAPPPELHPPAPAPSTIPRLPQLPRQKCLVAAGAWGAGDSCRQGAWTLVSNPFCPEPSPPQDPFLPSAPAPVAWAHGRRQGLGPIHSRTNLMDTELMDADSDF

Sonic hedgehog protein, sequence (Q62226 25-198 limits assumed): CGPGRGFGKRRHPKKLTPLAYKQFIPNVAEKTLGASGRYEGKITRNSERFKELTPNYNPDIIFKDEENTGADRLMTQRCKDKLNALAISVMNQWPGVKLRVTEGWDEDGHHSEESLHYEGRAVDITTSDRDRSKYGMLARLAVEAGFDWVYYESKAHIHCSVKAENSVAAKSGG

Compound	IC50 [1]	IC50 (HT-29)	IC50 [2]	IC50 [3]	IC50 (Sonic hedgehog protein)	IC50 (Protein smoothened)
COc1cc(C(=O)NC(=S)Nc2cccc(NC(=O)c3ccccc3)c2)cc(OC)c1OC	21.2 µM	6.61 µM	8.62 µM	13.8 µM	0.65 µM	0.281 µM
Cc1ccc(NC(=O)NC(=O)c2ccc(OCc3ccccc3F)cc2)cc1-c1nc2ccccc2[nH]1	4.11 µM	0.76 µM	2.52 µM	1.83 µM	–	–
Cc1ccc(NC(=O)NC(=O)c2ccc(OCc3cccc(F)c3)cc2)cc1-c1nc2ccccc2[nH]1	39.6 µM	38.2 µM	44.8 µM	53 µM	–	–
Cc1ccc(NC(=O)NC(=O)c2ccc(OCc3ccccc3)cc2)cc1-c1nc2ccccc2[nH]1	30.1 µM	16.4 µM	39.4 µM	35.1 µM	–	–
Cc1ccc(NC(=O)NC(=O)c2ccc(OCc3ccc(C(F)(F)F)cc3)cc2)cc1-c1nc2ccccc2[nH]1	15.3 µM	7.83 µM	14.9 µM	16.8 µM	–	–
Cc1ccc(NC(=S)NC(=O)c2ccc(OCc3ccc(C(F)(F)F)cc3)cc2)cc1-c1nc2ccccc2[nH]1	72.4 µM	17.6 µM	6.5 µM	10.2 µM	–	–
Cc1ccc(COc2ccc(C(=O)NC(=S)Nc3ccc(C)c(-c4nc5ccccc5[nH]4)c3)cc2)cc1	60.9 µM	14.2 µM	4.98 µM	11.3 µM	–	–
Cc1ccc(NC(=S)NC(=O)c2ccc(OCc3ccccc3Cl)cc2)cc1-c1nc2ccccc2[nH]1	57.1 µM	23.7 µM	45 µM	51.4 µM	–	–
Cc1ccc(COc2ccc(C(=O)NC(=O)Nc3ccc(C)c(-c4nc5ccccc5[nH]4)c3)cc2)cc1	26 µM	5.11 µM	4.25 µM	6.36 µM	–	–
Cc1ccc(NC(=S)NC(=O)c2ccc(OCc3cccc(Cl)c3)cc2)cc1-c1nc2ccccc2[nH]1	> 100 µM	35.3 µM	51.3 µM	43.3 µM	–	–
Cc1ccc(NC(=S)NC(=O)c2ccc(OCc3ccccc3F)cc2)cc1-c1nc2ccccc2[nH]1	6.44 µM	1.87 µM	3.07 µM	2.42 µM	0.158 µM	–
O=C(NC(=O)c1ccc(OCc2ccc(F)cc2)cc1)Nc1ccc(Cl)c(-c2nc3ccccc3[nH]2)c1	33.6 µM	0.73 µM	0.061 µM	0.35 µM	0.032 µM	0.042 µM
O=C(NC(=S)Nc1ccc(Cl)c(-c2nc3ccccc3[nH]2)c1)c1ccc(OCc2ccc(Cl)c(Cl)c2)cc1	24.9 µM	4.93 µM	5.17 µM	4.6 µM	–	–
Cc1ccc(NC(=O)NC(=O)c2ccc(OCc3ccccc3Cl)cc2)cc1-c1nc2ccccc2[nH]1	35.7 µM	9.01 µM	19.5 µM	21.5 µM	–	–
Cc1ccc(NC(=O)NC(=O)c2ccc(OCc3cccc(Cl)c3)cc2)cc1-c1nc2ccccc2[nH]1	16 µM	15.4 µM	20.8 µM	28 µM	–	–
Cc1ccc(NC(=S)NC(=O)c2ccc(OCc3ccc(Cl)c(Cl)c3)cc2)cc1-c1nc2ccccc2[nH]1	30.7 µM	6.27 µM	6.39 µM	8.41 µM	–	–

Compound	IC50 [1]	IC50 (HT-29)	IC50 [2]	IC50 [3]	IC50 (Sonic hedgehog protein)	IC50 (Protein smoothened)
Cc1ccc(NC(=S)NC(=O)c2ccc(OCc3ccc(Cl)cc3Cl)cc2)cc1-c1nc2ccccc2[nH]1	57.2 µM	11.6 µM	3.45 µM	5.3 µM	–	–
Cc1ccc(COc2ccc(C(=O)NC(=O)Nc3ccc(Cl)c(-c4nc5ccccc5[nH]4)c3)cc2)cc1	23.2 µM	2.95 µM	3.86 µM	3.19 µM	–	–
Cc1ccc(NC(=O)NC(=O)c2ccc(OCc3ccc(Cl)cc3Cl)cc2)cc1-c1nc2ccccc2[nH]1	12.2 µM	2.62 µM	2.74 µM	2.55 µM	–	–
Cc1ccc(NC(=S)NC(=O)c2ccc(OCc3ccc(F)cc3)cc2)cc1-c1nc2ccccc2[nH]1	40.5 µM	1.91 µM	2.81 µM	4.22 µM	–	–
Cc1ccc(NC(=S)NC(=O)c2ccc(OCc3cccc(Cl)c3Cl)cc2)cc1-c1nc2ccccc2[nH]1	> 100 µM	63.7 µM	> 100 µM	> 100 µM	–	–
Cc1ccc(NC(=S)NC(=O)c2ccc(OCc3cccc(C(F)(F)F)c3)cc2)cc1-c1nc2ccccc2[nH]1	15.4 µM	8.2 µM	5.21 µM	6.05 µM	–	–
Cc1ccc(NC(=O)NC(=O)c2ccc(OCc3ccc(Cl)c(Cl)c3)cc2)cc1-c1nc2ccccc2[nH]1	6.1 µM	1.03 µM	6.08 µM	5.82 µM	–	–
O=C(NC(=O)c1ccc(OCc2ccccc2F)cc1)Nc1ccc(Cl)c(-c2nc3ccccc3[nH]2)c1	2.93 µM	0.59 µM	0.12 µM	0.87 µM	0.025 µM	0.019 µM
Cc1ccc(NC(=S)NC(=O)c2ccc(OCc3ccccc3)cc2)cc1-c1nc2ccccc2[nH]1	67.1 µM	28.8 µM	60.7 µM	57.8 µM	–	–
Cc1ccc(NC(=O)NC(=O)c2ccc(OCc3ccc(F)cc3)cc2)cc1-c1nc2ccccc2[nH]1	35.1 µM	0.98 µM	0.16 µM	0.24 µM	0.037 µM	–
Cc1ccc(NC(=O)NC(=O)c2ccc(OCc3cccc(Cl)c3Cl)cc2)cc1-c1nc2ccccc2[nH]1	42.1 µM	48.5 µM	> 100 µM	87 µM	–	–
O=C(NC(=S)Nc1ccc(Cl)c(-c2nc3ccccc3[nH]2)c1)c1ccc(OCc2ccc(C(F)(F)F)cc2)cc1	63.9 µM	12.9 µM	5.33 µM	7.83 µM	–	–
Cc1ccc(NC(=O)NC(=O)c2ccc(OCc3cccc(C(F)(F)F)c3)cc2)cc1-c1nc2ccccc2[nH]1	9.64 µM	3.52 µM	13.1 µM	9.6 µM	–	–
Cc1ccc(NC(=S)NC(=O)c2ccc(OCc3cccc(F)c3)cc2)cc1-c1nc2ccccc2[nH]1	> 100 µM	55.3 µM	> 100 µM	86.8 µM	–	–
O=C(NC(=S)Nc1ccc(Cl)c(-c2nc3ccccc3[nH]2)c1)c1ccc(OCc2ccc(Cl)cc2Cl)cc1	50.2 µM	6.08 µM	3.03 µM	3.75 µM	–	–
CS(=O)(=O)c1ccc(C(=O)Nc2ccc(Cl)c(-c3ccccn3)c2)c(Cl)c1 [VISMODEGIB]	10.9 µM	1.08 µM	2.39 µM	2.88 µM	0.013 µM	–

— ChEMBL document CHEMBL3739278, “Synthesis and evaluation of novel N-3-benzimidazolephenylbisamide derivatives for antiproliferative and Hedgehog pathway inhibitory activity” (Medchemcomm, 2015)
